Legend:
Hepatitis B virus = assay: microbe, parasite or virus in culture; format: functional, organism-based
HepG2 = assay: Cytotoxicity against human HepG2 cells at 1 uM; format: toxicity, cell-based; settings: hepg2, 1 µM
Influenza A virus [1] = assay: microbe, parasite or virus in culture; settings: A/FPV/Bratislava/79 (H7N7), MDCK-II
Dengue virus = assay: microbe, parasite or virus in culture
Influenza A virus [2] = assay: microbe, parasite or virus in culture; settings: RB1 H1N1
Influenza A virus [3] = assay: microbe, parasite or virus in culture; settings: GSB H5N1
Influenza A virus [4] = assay: microbe, parasite or virus in culture; settings: H7N7
Influenza A virus [5] = assay: microbe, parasite or virus in culture; settings: Lung, 24 h
Influenza A virus [6] = assay: microbe, parasite or virus in culture; settings: H1N1v, A549
in vitro [7] = settings: dog
Influenza A virus [8] = assay: microbe, parasite or virus in culture; settings: MB1 H5N1
Influenza A virus [9] = assay: microbe, parasite or virus in culture; settings: FPV H7N7
Influenza A virus [10] = assay: Antiviral activity against influenza A virus (A/WSN/1933) strain; format: functional, organism-based
Influenza A virus [11] = assay: microbe, parasite or virus in culture; format: functional, organism-based; settings: H7N9
Influenza A virus [12] = assay: microbe, parasite or virus in culture; format: functional, organism-based; settings: A/ck/Yamaguchi/7/2004 (H5N10)
Influenza A virus [13] = assay: microbe, parasite or virus in culture; format: functional, organism-based; settings: H5N1
[14] = biological target: Tyrosine-protein kinase JAK2 (Homo sapiens, UniProt O60674); settings: dose 50.0 nM
Influenza A virus [15] = assay: microbe, parasite or virus in culture; format: functional, organism-based; settings: A/Anhui/1/2013 (H7N9)
Influenza A virus [16] = assay: microbe, parasite or virus in culture; format: functional, organism-based; settings: H3N2
Zaire ebolavirus = assay: microbe, parasite or virus in culture; format: functional, organism-based
in vitro [17] = settings: human, hek-293t
Hepatitis C virus [18] = assay: Antiviral activity against HCV assessed as fold reduction in virus titre at 10 uM; format: functional, Hepacivirus hominis
[19] = Cytotoxicity against MDDC cells (unknown origin); format: toxicity, cell-based
[20] = Cytotoxicity against human LU cells; format: toxicity, cell-based
Human betaherpesvirus 5 = assay: Antiviral activity against HCMV assessed as inhibition of DNA synthesis at 10 uM relative to control; format: functional
[21] = Cytotoxicity against HEK cells; format: toxicity, cell-based; settings: human
in vitro [22] = settings: human, HeLa cells
Human alphaherpesvirus 1 = assay: microbe, parasite or virus in culture; format: functional, organism-based
[23] = biological target: Inhibitor of nuclear factor kappa-B kinase subunit epsilon (Homo sapiens, UniProt Q14164); assay: Inhibition of IKK epsilon (unknown origin)
[24] = Cytotoxicity against human HCE cells; format: toxicity, cell-based
Human alphaherpesvirus 2 = assay: Antiviral activity against HSV-2 assessed as reduction in virus titre at 10 uM relative to control; format: functional; parameters: scale not given: the % may be the effect or the level left
Measles morbillivirus = format: functional
in vitro [25] = settings: human, pbl
[26] = Cytotoxicity against human NCI-H1650 cells; format: toxicity, cell-based
Focal adhesion kinase 1 = Focal adhesion kinase 1 (Homo sapiens, UniProt Q05397); assay: Inhibition of FAK (unknown origin)
[27] = Cytotoxicity against human NCI-H358 cells; format: toxicity, cell-based
[28] = Cytotoxicity against human A549 cells; format: toxicity, cell-based
Influenza A virus [29] = assay: microbe, parasite or virus in culture; format: functional, organism-based
in vitro [30] = settings: human, Huh-7 cells
[31] = biological target: Phosphatidylinositol 4-phosphate 3-kinase C2 domain-containing subunit beta (Homo sapiens, UniProt O00750); assay: Inhibition of PIK3C2beta (unknown origin)
Human rhinovirus sp. = assay: Antiviral activity against RV; format: functional, organism-based, Enterovirus
Influenza B virus = assay: Antiviral activity against influenza B virus; format: functional, organism-based
Hepatitis C virus [32] = assay: microbe, parasite or virus in culture
[33] = biological target: Epidermal growth factor receptor (Homo sapiens, UniProt P00533)
Sequence of Epidermal growth factor receptor (P00533 whole entry): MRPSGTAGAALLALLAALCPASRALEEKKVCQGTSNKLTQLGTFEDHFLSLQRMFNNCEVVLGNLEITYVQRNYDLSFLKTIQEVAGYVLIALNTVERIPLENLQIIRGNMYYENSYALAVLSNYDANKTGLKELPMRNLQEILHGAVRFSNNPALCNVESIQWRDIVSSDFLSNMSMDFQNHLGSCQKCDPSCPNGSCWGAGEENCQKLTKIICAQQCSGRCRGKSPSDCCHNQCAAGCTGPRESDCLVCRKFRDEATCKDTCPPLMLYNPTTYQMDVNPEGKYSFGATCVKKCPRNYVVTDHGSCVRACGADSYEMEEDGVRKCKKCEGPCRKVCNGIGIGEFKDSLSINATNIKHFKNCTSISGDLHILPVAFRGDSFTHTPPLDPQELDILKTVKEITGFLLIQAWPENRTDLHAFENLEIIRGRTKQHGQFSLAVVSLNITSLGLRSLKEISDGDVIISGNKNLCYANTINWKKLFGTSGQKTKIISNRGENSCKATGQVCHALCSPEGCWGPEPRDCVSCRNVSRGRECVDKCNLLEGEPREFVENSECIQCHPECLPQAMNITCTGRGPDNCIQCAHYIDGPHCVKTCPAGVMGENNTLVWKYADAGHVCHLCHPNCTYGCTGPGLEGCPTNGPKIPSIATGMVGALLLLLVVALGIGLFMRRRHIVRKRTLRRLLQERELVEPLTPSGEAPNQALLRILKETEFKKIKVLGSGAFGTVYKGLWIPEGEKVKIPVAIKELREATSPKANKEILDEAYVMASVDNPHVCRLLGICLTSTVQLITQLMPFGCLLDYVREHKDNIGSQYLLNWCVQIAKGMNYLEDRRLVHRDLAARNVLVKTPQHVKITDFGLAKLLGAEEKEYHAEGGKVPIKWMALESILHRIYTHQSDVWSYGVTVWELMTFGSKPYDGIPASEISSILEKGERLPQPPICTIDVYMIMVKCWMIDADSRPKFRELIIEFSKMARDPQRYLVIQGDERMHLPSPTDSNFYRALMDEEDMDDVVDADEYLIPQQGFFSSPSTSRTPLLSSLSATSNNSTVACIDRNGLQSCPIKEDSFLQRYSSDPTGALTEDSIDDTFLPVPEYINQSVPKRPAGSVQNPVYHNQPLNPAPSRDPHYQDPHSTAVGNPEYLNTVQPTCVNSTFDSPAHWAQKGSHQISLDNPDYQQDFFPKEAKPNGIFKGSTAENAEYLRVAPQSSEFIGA

Sequence of Tyrosine-protein kinase JAK2 (O60674 whole entry): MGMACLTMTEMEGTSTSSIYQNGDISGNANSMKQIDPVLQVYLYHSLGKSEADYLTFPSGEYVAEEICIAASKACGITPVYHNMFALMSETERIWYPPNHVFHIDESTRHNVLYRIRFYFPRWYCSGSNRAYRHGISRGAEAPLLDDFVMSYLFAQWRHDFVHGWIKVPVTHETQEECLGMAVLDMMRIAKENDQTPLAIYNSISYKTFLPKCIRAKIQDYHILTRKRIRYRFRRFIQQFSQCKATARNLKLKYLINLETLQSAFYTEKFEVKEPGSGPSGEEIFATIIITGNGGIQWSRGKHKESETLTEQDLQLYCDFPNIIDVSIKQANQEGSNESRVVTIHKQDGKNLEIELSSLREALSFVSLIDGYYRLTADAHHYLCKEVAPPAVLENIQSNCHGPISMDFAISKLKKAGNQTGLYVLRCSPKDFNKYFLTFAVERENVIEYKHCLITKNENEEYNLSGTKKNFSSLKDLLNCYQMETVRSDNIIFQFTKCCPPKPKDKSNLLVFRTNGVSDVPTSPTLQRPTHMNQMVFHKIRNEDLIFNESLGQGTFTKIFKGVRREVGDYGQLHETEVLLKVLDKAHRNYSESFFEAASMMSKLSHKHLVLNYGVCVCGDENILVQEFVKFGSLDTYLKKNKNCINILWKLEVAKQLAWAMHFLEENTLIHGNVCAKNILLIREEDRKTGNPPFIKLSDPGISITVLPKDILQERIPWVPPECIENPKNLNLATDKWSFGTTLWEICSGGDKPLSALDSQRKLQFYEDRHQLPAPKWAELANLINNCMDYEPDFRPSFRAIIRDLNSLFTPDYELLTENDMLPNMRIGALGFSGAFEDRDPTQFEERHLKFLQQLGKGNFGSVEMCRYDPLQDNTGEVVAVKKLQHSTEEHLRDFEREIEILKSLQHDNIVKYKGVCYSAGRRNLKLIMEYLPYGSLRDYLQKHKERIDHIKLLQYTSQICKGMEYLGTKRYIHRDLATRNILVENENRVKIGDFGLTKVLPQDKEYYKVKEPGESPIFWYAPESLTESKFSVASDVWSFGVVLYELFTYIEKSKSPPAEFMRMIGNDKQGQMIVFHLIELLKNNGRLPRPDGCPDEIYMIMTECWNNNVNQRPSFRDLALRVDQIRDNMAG
Sequence of Inhibitor of nuclear factor kappa-B kinase subunit epsilon (Q14164 whole entry): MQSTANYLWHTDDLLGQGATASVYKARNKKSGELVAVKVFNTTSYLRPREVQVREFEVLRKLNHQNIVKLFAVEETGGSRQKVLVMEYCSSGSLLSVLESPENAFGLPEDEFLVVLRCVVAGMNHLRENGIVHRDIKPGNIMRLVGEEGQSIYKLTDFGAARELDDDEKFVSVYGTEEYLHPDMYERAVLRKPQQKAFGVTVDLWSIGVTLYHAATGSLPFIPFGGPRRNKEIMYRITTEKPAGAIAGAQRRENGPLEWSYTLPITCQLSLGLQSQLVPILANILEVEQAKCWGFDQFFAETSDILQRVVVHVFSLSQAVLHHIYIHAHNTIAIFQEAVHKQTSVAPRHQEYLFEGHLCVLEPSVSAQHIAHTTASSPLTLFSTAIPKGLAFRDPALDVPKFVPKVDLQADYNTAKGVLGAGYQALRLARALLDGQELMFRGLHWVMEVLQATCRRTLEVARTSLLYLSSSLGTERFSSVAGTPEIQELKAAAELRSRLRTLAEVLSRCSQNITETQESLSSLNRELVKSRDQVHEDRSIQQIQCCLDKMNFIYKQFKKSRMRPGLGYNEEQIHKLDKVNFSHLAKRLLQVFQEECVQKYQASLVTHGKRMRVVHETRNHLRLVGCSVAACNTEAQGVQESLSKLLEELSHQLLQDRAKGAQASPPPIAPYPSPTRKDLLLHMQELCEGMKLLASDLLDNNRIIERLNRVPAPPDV
Sequence of Focal adhesion kinase 1 (Q05397 whole entry): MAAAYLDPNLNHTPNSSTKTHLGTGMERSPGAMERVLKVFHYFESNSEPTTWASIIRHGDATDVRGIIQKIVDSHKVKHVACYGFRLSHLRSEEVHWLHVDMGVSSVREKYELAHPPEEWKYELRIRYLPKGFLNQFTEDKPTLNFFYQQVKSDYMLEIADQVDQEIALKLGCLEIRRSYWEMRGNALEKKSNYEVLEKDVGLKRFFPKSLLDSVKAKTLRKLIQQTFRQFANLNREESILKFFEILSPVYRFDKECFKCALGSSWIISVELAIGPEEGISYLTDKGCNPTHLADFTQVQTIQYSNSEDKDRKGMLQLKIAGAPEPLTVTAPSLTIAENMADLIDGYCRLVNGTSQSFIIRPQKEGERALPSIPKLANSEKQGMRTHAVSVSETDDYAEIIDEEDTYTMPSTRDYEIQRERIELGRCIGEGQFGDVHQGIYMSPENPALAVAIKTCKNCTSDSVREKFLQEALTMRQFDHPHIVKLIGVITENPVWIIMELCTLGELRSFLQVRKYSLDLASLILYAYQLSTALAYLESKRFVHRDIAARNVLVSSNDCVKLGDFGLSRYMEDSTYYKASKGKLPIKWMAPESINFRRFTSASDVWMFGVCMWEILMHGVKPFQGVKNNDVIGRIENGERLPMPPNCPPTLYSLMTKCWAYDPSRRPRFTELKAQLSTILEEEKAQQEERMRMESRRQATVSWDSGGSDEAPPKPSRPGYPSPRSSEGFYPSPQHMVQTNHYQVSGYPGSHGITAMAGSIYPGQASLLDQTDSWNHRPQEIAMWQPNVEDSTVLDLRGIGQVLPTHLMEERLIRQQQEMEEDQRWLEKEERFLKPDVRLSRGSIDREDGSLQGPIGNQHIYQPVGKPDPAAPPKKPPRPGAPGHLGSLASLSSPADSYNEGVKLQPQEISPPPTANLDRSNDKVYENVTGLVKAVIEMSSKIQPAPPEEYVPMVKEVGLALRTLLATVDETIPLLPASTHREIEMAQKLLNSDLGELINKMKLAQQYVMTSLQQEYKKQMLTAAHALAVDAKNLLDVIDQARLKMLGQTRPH

Cc1n[nH]c2ccc(-c3cncc(OC[C@@H](N)Cc4c[nH]c5ccccc45)c3)cc12 [A-443654]
inhibition (INH) (Hepatitis B virus): 50%
Activity (HepG2): Non-Toxic

N#CC(=C(/N)Sc1ccccc1N)/C(C#N)=C(\N)Sc1ccccc1N
EC50 (Influenza A virus [1]): 74.7 µM
IC50 (Dengue virus): 14.2 µM
EC50 (Influenza A virus [2]): 1.21 µM
EC50 (Influenza A virus [3]): 36.6 µM
EC50 (Influenza A virus [4]): 620 µM
EC50 (Influenza A virus [5]): 620 µM
EC50 (Influenza A virus [6]): 1.2 µM
CC50 (in vitro [7]; mdck): > 50 µM
EC50 (Influenza A virus [8]): 4.43 µM
EC50 (Influenza A virus [9]): 82.7 µM

CC1=C(C)C2NC(=O)C(CN3C(=S)N([C@@H](C)c4ccccc4)C(=O)C3C3CC3)C=C2C=C1 (stereo partly drawn)
IC50 (Influenza A virus [10]): 0.012 µM
EC50 (Influenza A virus [11]): 20 µM
IC50 (Influenza A virus [12]): 0.02 µM
CC50 (in vitro [7]; MDCK cells): 3.8 µM
EC50 (Influenza A virus [13]): 20 µM
inhibition [14]: 61%
IC50 (Influenza A virus [15]): 0.02 µM
EC50 (Influenza A virus [16]): 0.02 µM

O=c1cc(N2CCOCC2)oc2c(-c3ccccc3)cccc12 [LY-294002]
EC50 (Zaire ebolavirus): 1.8 µM
CC50 (in vitro [17]): > 20 µM
fold change (FC) (Hepatitis C virus [18]): 5

COc1cc(-c2cnc3c(N4C[C@@H](C)O[C@@H](C)C4)snc3c2)ccc1N
EC50 (Dengue virus): 3.5 µM
CC50 [19]: > 20 µM

Cn1cnc2c(NCc3ccccc3)nc(NCCO)nc21 [OLOMOUCINE]
CC50 [20]: > 15 µM
inhibition at 10 µM (Human betaherpesvirus 5): 50%

O=C(NCCCNc1nc(Nc2cccc(NC(=O)N3CCCC3)c2)ncc1I)c1cccs1 [BX-795]
CC50 [21]: 46 µM
CC50 (in vitro [22]): 46 µM
EC50 (Human alphaherpesvirus 1): 10 µM
IC50 [23]: 0.041 µM
CC50 [24]: 46 µM
Activity (Human alphaherpesvirus 2): >90%

Oc1ccc(Nc2nc(-c3ccc(Cl)cc3)cs2)cc1
inhibition (INH) (Measles morbillivirus): 70%
CC50 (in vitro [25]): > 5 µM

Nc1cc(N)c(N)cc1N
CC50 [26]: > 1 µM
IC50 (Focal adhesion kinase 1): 1 µM
CC50 [27]: > 1 µM
CC50 [28]: > 1 µM

O=C(Cc1cccs1)Nc1cccc(-c2ccc3nnc(-c4cccnc4)n3n2)c1
EC50 (Influenza A virus [29]): 0.35 µM
CC50 (in vitro [30]): > 50 µM
CC50 (in vitro [7]; MDCK cells): > 50 µM
IC50 [31]: 0.43 µM
EC50 (Human rhinovirus sp.): 0.05 µM
CC50 [28]: > 50 µM
EC50 (Influenza B virus): 0.4 µM
EC50 (Hepatitis C virus [32]): 0.76 µM
IC50 [33]: 0.079 µM
